Test results published in patent US10479784B2, “Substituted pyrazin-2-amines as inhibitors of ATR kinase” (Vertex Pharmaceuticals Incorporated, priority 2008, dated 2019).

These molecules were tested against full-length ATR (Homo sapiens (Human), UniProt Q13535) (assay: ATR Inhibition Assay (radioactive-phosphate incorporation)). Settings: read-out: ATR Ki.
Format: biochemical
Description: Compounds were screened for their ability to inhibit ATR kinase using a radioactive-phosphate incorporation assay. Assays were carried out in a mixture of 50 mM Tris/HCl (pH 7.5), 10 mM MgCl2 and 1 mM DTT. Final substrate concentrations were […] [γ-33P]ATP (3mCi 33P ATP/mmol ATP, Perkin Elmer) and 800 μM target peptide ([…]).
Assays were carried out at 25° C. in the presence of 5 nM full-length ATR. An assay stock buffer solution was prepared containing all of the reagents listed above, with the exception of ATP and the test compound of interest. […] The plate was pre-incubated for 10 minutes at 25° C. and the reaction initiated by addition of 15 μL [γ-33P]ATP (final concentration 10 μM).
The reaction was stopped after […] by the addition of 30 μL 0.1M phosphoric acid containing 2 mM ATP. A multiscreen phosphocellulose filter 96-well plate (Millipore, Cat no. MAPHN0B50) was pretreated with 100 μL 0.2M phosphoric acid prior to the addition of 45 μL of the stopped assay mixture. […] After drying, 100 μL Optiphase ‘SuperMix’ liquid scintillation cocktail (Perkin Elmer) was added to the well prior to scintillation counting (1450 Microbeta Liquid Scintillation Counter, Wallac).
After removing mean background values for all of the data points, Ki(app) data were calculated from non-linear regression analysis of the initial rate data using the Prism software package (GraphPad Prism version 3.0cx for Macintosh, GraphPad Software, San Diego Calif., USA).

Sequence of full-length ATR (Q13535 whole entry): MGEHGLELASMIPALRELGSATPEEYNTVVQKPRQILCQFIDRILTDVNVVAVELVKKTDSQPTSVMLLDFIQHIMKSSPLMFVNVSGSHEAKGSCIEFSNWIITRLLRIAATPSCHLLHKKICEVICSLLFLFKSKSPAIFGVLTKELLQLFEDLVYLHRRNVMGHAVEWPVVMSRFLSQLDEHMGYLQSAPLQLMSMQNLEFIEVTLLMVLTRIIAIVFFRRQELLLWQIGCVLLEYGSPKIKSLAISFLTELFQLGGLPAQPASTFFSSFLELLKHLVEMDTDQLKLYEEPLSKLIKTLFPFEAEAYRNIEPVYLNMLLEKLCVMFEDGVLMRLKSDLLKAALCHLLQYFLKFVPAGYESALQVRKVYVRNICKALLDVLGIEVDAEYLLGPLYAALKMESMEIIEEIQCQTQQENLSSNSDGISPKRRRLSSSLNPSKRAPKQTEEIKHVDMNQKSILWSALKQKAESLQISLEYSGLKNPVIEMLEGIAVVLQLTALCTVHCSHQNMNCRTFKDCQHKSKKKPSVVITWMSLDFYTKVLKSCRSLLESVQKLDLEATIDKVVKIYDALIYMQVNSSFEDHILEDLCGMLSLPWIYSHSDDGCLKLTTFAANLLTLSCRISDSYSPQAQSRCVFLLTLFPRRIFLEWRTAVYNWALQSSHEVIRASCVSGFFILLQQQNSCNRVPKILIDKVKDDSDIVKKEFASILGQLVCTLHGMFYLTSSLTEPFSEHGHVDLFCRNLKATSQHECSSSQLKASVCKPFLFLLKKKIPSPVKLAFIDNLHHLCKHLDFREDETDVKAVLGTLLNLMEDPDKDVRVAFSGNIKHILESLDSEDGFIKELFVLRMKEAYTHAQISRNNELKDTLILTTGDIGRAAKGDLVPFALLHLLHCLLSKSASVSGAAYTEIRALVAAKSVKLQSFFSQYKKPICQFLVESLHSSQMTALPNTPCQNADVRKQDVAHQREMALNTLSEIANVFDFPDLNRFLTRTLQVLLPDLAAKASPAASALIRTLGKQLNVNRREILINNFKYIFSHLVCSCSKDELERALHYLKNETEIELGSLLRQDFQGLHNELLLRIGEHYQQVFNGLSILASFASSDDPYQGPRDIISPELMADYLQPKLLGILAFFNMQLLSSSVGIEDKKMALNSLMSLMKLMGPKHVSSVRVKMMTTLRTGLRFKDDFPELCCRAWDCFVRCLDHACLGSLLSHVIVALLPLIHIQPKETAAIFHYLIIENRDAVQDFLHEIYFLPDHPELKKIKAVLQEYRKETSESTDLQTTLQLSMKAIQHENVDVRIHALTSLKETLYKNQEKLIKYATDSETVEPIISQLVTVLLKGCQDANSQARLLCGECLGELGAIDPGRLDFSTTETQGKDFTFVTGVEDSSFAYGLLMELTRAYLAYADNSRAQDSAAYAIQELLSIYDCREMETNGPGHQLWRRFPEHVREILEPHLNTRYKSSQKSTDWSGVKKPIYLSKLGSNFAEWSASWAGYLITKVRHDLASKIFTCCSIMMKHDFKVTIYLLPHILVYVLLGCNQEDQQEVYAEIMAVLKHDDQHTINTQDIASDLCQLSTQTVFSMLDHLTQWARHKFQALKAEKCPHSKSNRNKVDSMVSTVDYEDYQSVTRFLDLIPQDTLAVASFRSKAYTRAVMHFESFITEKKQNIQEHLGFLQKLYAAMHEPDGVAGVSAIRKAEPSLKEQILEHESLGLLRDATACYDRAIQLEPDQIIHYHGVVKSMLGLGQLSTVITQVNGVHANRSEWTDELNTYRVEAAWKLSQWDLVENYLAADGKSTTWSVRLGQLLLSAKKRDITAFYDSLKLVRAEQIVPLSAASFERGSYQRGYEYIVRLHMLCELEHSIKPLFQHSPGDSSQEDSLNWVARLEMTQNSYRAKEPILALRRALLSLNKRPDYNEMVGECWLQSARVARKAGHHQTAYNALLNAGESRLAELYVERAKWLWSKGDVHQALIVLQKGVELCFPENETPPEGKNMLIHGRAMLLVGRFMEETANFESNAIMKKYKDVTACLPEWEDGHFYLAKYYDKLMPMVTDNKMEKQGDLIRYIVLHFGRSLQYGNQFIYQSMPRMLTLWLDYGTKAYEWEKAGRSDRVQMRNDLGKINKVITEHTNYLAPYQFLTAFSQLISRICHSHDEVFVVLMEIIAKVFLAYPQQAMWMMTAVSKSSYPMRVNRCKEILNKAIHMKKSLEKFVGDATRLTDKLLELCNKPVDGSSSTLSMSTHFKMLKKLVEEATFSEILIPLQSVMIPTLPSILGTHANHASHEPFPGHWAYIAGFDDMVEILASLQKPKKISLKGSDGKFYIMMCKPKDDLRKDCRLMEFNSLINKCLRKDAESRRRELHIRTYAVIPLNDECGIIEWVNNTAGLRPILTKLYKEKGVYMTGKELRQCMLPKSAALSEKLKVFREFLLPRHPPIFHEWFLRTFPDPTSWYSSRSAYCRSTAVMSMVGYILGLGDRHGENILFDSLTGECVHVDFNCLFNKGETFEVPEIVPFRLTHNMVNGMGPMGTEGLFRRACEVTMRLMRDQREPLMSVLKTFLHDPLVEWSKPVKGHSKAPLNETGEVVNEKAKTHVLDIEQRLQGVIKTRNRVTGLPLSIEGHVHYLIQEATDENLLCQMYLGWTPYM

Ki [µM]	Compound
0.01 to 0.1	Nc1ncc(-c2ccc(C(=O)N3CCC(O)C3)cc2)nc1C(=O)Nc1ccccc1 (centres unmarked) [Compound I-75, 3-amino-6-(4-(3-hydroxypyrrolidine-1-carbonyl)phenyl)-N-phenylpyrazine-2-carboxamide]
0.01 to 0.1	NC(=O)C1CCN(C(=O)c2ccc(-c3cnc(N)c(C(=O)Nc4ccccc4)n3)cc2)CC1 [Compound I-77, 3-amino-6-(4-(4-carbamoylpiperidine-1-carbonyl)phenyl)-N-phenylpyrazine-2-carboxamide]
0.01 to 0.1	Nc1ncc(-c2ccc(C(=O)N3CCCCC3)cc2)nc1C(=O)Nc1ccccc1 [Compound I-78, 3-amino-N-phenyl-6-(4-(piperidine-1-carbonyl)phenyl)pyrazine-2-carboxamide]
0.01 to 0.1	Nc1ncc(-c2ccc(C(=O)N3CCC(CO)CC3)cc2)nc1C(=O)Nc1ccccc1 [Compound I-79, 3-amino-6-(4-(4-(hydroxymethyl)piperidine-1-carbonyl)phenyl)-N-phenylpyrazine-2-carboxamide]
0.01 to 0.1	CN(C)C1CCN(C(=O)c2ccc(-c3cnc(N)c(C(=O)Nc4ccccc4)n3)cc2)CC1 [Compound I-80, 3-amino-6-(4-(4-(dimethylamino)piperidine-1-carbonyl)phenyl)-N-phenylpyrazine-2-carboxamide]
≤ 0.01	N#CCCN1CCN(C(=O)c2ccc(-c3cnc(N)c(C(=O)Nc4ccccc4)n3)cc2)CC1 [Compound I-81, 3-amino-6-(4-(4-(2-cyanoethyl)piperazine-1-carbonyl)phenyl)-N-phenylpyrazine-2-carboxamide]
0.1 to 5	Nc1ncc(-c2cccnc2)nc1C(=O)Nc1cccc2cc[nH]c12 [Compound I-83, 3-amino-N-(1H-indol-7-yl)-6-(pyridin-3-yl)pyrazine-2-carboxamide]
0.1 to 5	COc1ccc(NC(=O)c2nc(-c3cccnc3)cnc2N)cc1 [Compound I-84, 3-amino-N-(4-methoxyphenyl)-6-(pyridin-3-yl)pyrazine-2-carboxamide]
0.01 to 0.1	Nc1ncc(-c2cccnc2)nc1C(=O)Nc1ccccc1 [Compound I-85, 3-amino-N-phenyl-6-(pyridin-3-yl)pyrazine-2-carboxamide]
0.01 to 0.1	COc1cccc(NC(=O)c2nc(-c3cccnc3)cnc2N)c1 [Compound I-86, 3-amino-N-(3-methoxyphenyl)-6-(pyridin-3-yl)pyrazine-2-carboxamide]
0.1 to 5	N#Cc1cccc(NC(=O)c2nc(-c3cccnc3)cnc2N)c1 [Compound I-87, 3-amino-N-(3-cyanophenyl)-6-(pyridin-3-yl)pyrazine-2-carboxamide]
0.1 to 5	NC(=O)c1cccc(NC(=O)c2nc(-c3cccnc3)cnc2N)c1 [Compound I-88, 3-amino-N-(3-carbamoylphenyl)-6-(pyridin-3-yl)pyrazine-2-carboxamide]
0.1 to 5	Nc1ncc(-c2cccnc2)nc1C(=O)Nc1ccncn1 [Compound I-89, 3-amino-6-(pyridin-3-yl)-N-(pyrimidin-4-yl)pyrazine-2-carboxamide]
0.1 to 5	CN(C)c1cccc(NC(=O)c2nc(-c3cccnc3)cnc2N)c1 [Compound I-90, 3-amino-N-(3-(dimethylamino)phenyl)-6-(pyridin-3-yl)pyrazine-2-carboxamide]
0.1 to 5	Cc1ccccc1NC(=O)c1nc(-c2cccnc2)cnc1N [Compound I-91, 3-amino-6-(pyridin-3-yl)-N-o-tolylpyrazine-2-carboxamide]
0.1 to 5	NC(=O)c1ccc(NC(=O)c2nc(-c3cccnc3)cnc2N)cc1 [Compound I-92, 3-amino-N-(4-carbamoylphenyl)-6-(pyridin-3-yl)pyrazine-2-carboxamide]
0.1 to 5	CC(=O)Nc1ccc(NC(=O)c2nc(-c3cccnc3)cnc2N)cc1 [Compound I-93, 3-amino-N-(4-ethanamidophenyl)-6-(pyridin-3-yl)pyrazine-2-carboxamide]
0.1 to 5	Nc1ncc(-c2cccnc2)nc1C(=O)Nc1ccc(F)cc1 [Compound I-94, 3-amino-N-(4-fluorophenyl)-6-(pyridin-3-yl)pyrazine-2-carboxamide]
0.1 to 5	CC(=O)Nc1cccc(NC(=O)c2nc(-c3cccnc3)cnc2N)c1 [Compound I-95, 3-amino-N-(3-ethanamidophenyl)-6-(pyridin-3-yl)pyrazine-2-carboxamide]
0.1 to 5	Nc1ncc(-c2cccnc2)nc1C(=O)Nc1ccccc1F [Compound I-96, 3-amino-N-(2-fluorophenyl)-6-(pyridin-3-yl)pyrazine-2-carboxamide]
0.1 to 5	Nc1ncc(-c2cccnc2)nc1C(=O)Nc1ccccn1 [Compound I-97, 3-amino-N-(pyridin-2-yl)-6-(pyridin-3-yl)pyrazine-2-carboxamide]

Ki [µM]	Compound
0.1 to 5	Nc1ncc(-c2cccnc2)nc1C(=O)Nc1ccncc1 [Compound I-98, 3-amino-6-(pyridin-3-yl)-N-(pyridin-4-yl)pyrazine-2-carboxamide]
0.1 to 5	Nc1ncc(-c2cccnc2)nc1C(=O)Nc1cccc2c1OC(F)(F)O2 [Compound I-99, 3-amino-N-(2,2-difluorobenzo[d][1,3]dioxol-4-yl)-6-(pyridin-3-yl)pyrazine-2-carboxamide]
0.1 to 5	COc1ccc(NC(C)=O)cc1NC(=O)c1nc(-c2cccnc2)cnc1N [Compound I-100, 3-amino-N-(5-ethanamido-2-methoxyphenyl)-6-(pyridin-3-yl)pyrazine-2-carboxamide]
0.01 to 0.1	Nc1ncc(-c2cccnc2)nc1C(=O)Nc1cccc(S(N)(=O)=O)c1 [Compound I-101, 3-amino-6-(pyridin-3-yl)-N-(3-sulfamoylphenyl)pyrazine-2-carboxamide]
0.01 to 0.1	Nc1ncc(-c2cccnc2)nc1C(=O)Nc1ccccc1OC(F)(F)F [Compound I-102, 3-amino-6-(pyridin-3-yl)-N-(2-(trifluoromethoxy)phenyl)pyrazine-2-carboxamide]
0.01 to 0.1	Nc1ncc(-c2cccnc2)nc1C(=O)Nc1cccc(F)c1 [Compound I-103, 3-amino-N-(3-fluorophenyl)-6-(pyridin-3-yl)pyrazine-2-carboxamide]
0.01 to 0.1	Nc1ncc(-c2cccnc2)nc1C(=O)Nc1ccc2[nH]ccc2c1 [Compound I-104, 3-amino-N-(1H-indol-5-yl)-6-(pyridin-3-yl)pyrazine-2-carboxamide]
0.01 to 0.1	Nc1ncc(-c2cccnc2)nc1C(=O)Nc1ccc2cc[nH]c2c1 [Compound I-105, 3-amino-N-(1H-indol-6-yl)-6-(pyridin-3-yl)pyrazine-2-carboxamide]
0.01 to 0.1	COc1ccccc1NC(=O)c1nc(-c2cccnc2)cnc1N [Compound I-106, 3-amino-N-(2-methoxyphenyl)-6-(pyridin-3-yl)pyrazine-2-carboxamide]
0.01 to 0.1	COc1ccc(OC)c(NC(=O)c2nc(-c3cccnc3)cnc2N)c1 [Compound I-107, 3-amino-N-(2,5-dimethoxyphenyl)-6-(pyridin-3-yl)pyrazine-2-carboxamide]
≤ 0.01	COc1ccc(C)cc1NC(=O)c1nc(-c2cccnc2)cnc1N [Compound I-108, 3-amino-N-(2-methoxy-5-methylphenyl)-6-(pyridin-3-yl)pyrazine-2-carboxamide]
≤ 0.01	CS(=O)(=O)c1ccc(-c2cnc(N)c(-c3nc4cccc(O)c4[nH]3)n2)cc1 [Compound I-109, 2-(3-amino-6-(4-(methylsulfonyl)phenyl)pyrazin-2-yl)-1H-benzo[d]imidazol-7-ol]
0.1 to 5	Nc1ncc(-c2ccccc2)nc1-c1nc2ccccc2[nH]1 [Compound I-110, 3-(1H-benzo[d]imidazol-2-yl)-5-phenylpyrazin-2-amine]
0.01 to 0.1	CS(=O)(=O)c1ccc(-c2cnc(N)c(-c3nc4ccc(C#N)cc4[nH]3)n2)cc1 [Compound I-111, 2-(3-amino-6-(4-(methylsulfonyl)phenyl)pyrazin-2-yl)-1H-benzo[d]imidazole-6-carbonitrile]
≤ 0.01	CS(=O)(=O)c1ccc(-c2cnc(N)c(-c3nc4cccnc4[nH]3)n2)cc1 [Compound I-112, 3-(3H-imidazo[4,5-b]pyridin-2-yl)-5-(4-(methylsulfonyl)phenyl) pyrazin-2-amine]
0.1 to 5	Nc1ncc(-c2ccccc2)nc1-c1nc2cccc(O)c2[nH]1 [Compound I-113, 2-(3-amino-6-phenylpyrazin-2-yl)-1H-benzo[d]imidazol-7-ol]
≤ 0.01	CS(=O)(=O)c1ccc(-c2cnc(N)c(-c3nc4ccc(Cl)cc4[nH]3)n2)cc1 [Compound I-114, 3-(6-chloro-1H-benzo[d]imidazol-2-yl)-5-(4-(methylsulfonyl)phenyl) pyrazin-2-amine]
0.01 to 0.1	COc1ccc2nc(-c3nc(-c4ccc(S(C)(=O)=O)cc4)cnc3N)[nH]c2c1 [Compound I-115, 3-(6-methoxy-1H-benzo[d]imidazol-2-yl)-5-(4-(methylsulfonyl)phenyl) pyrazin-2-amine]
0.1 to 5	COC(=O)c1ccc2nc(-c3nc(-c4ccc(S(C)(=O)=O)cc4)cnc3N)[nH]c2c1 [Compound I-116, methyl 2-(3-amino-6-(4-(methylsulfonyl)phenyl)pyrazin-2-yl)-1H-benzo[d]imidazole-6-carboxylate]
0.01 to 0.1	Cc1ccc2nc(-c3nc(-c4ccc(S(C)(=O)=O)cc4)cnc3N)[nH]c2c1 [Compound I-117, 3-(6-methyl-1H-benzo[d]imidazol-2-yl)-5-(4-(methylsulfonyl)phenyl) pyrazin-2-amine]
